Values quoted from earlier work, collected in US9382205B2, “Processes for the manufacture of a pharmaceutically active agent” (H. Lundbeck A/S, priority 2009, dated 2016).
pKi: −log10 of the molar value.

Key:
human 5-HT6 receptor = details: from Roth et al. 1994
[1] = Rogers et al. 1999
Alzheimer's patients = details: first report

CN(C)CCC=C1c2ccccc2CCc2ccccc21 [amitriptyline]
pKi (human 5-HT6 receptor): 7.19

COc1ccc(NS(=O)(=O)c2sc3ccc(Cl)cc3c2C)cc1N1CCNCC1 [SB-271046]
performance in the Morris water maze [1]: improved performance
spatial alternation operant behavior test (aged rats): improvements

O=S(=O)(c1ccccc1)c1cnc2c(N3CCNCC3)cccc2c1 [SB-742457]
clinical benefit (Alzheimer's patients): of clinical benefit
